Laboratory results published in US4066510A, “Assay for mutagenesis in diploid human lymphoblasts” (Massachusetts Institute of Technology, priority 1976, dated 1978).
Read-outs that look alike come from different tables or passages of the source.

Key:
[1] = system: Mutant Type (HGPRT-) clones (6TG^R); assay: cells; conditions: Homo sapiens
Procedure: Cell survival was measured by a soft-agar plating procedure that was originally devised for mouse myeloma cells and latter extended to human lymphoblasts. […] For plating efficiencies, confluent feeder layers were used of a fibroblast strain derived from a patient afflicted with the Lesch-Nyhan syndrome. […] The feeder layer was overlayed with a separation layer formed from 2.5 ml of RPMI 1640 medium containing 0.25% agarose (M.C.I. Biomedical), which was allowed to gel at room temperature (10 min). The cells were suspended in 2.5 ml of 0.25% agarose-RPMI 1640 layered over the separator layer; this layer was then allowed to gel before the plates were incubated at 37° in humidified air containing 5% CO2. On the following day, 1.0 ml of RPMI 1640 medium was placed on each plate, and another 1.0 ml was added 6 days later. Although microscopic colonies could be counted on day 7, 14 days were allowed in order to permit an increase in colony size to about 0.4 mm because this permitted the use of an automatic colony counter (Artek Systems). Cell counts in suspension were accomplished by counting samples on an electronic particle counter (Coulter Electronics).
HGPRT activity and plating efficiencies as a function of 6TG concentration for clones sensitive (6TG^S) or resistant (6TG^R) to 10 μg/ml of 6TG were determined.
Plating efficiencies were determined following the procedure of Example 1.

[2] = system: human lymphoblast line (MIT-2)
in vitro = conditions: human, mit-2 lymphoblasts
[3] = Stability of MNU solution (electronic absorption spectra); assay type: physicochemical; conditions: PBS, pH 7.2, kept cold
Procedure: Crystalline form methylnitrosourea (MNU) was dessicated and preweighed into aliquots. The quantitative electronic absorption spectra of one of these preweighed aliquots dissolved in phosphate buffered saline (PBS), pH7.2, was determined and found to remain stable for more than 60 minutes when kept cold. Fresh solutions were prepared 10 minutes prior to dosing by dissolving preweighed aliquots in PBS and filter-sterilizing the solutions. They were then used immediately for dosing cultures and simultaneously characterized by electronic absorbance spectra.

6TG^S and 6TG^R clones = assay: Dose-dependent sensitivity to MNU of 6TG^R clones compared with wild-type (6TG^S)
HGPRT = conditions: linear with time over 60 min, 5 × 10^6 cells/ml in the sonicate
Procedure: HGPRT activity was determined using a modification of a published technique.
The reaction was quenched by addition of 0.025 ml of 50 mM EDTA at 0°. DE-81 2.5-cm disks (DEAE cellulose; Whatman) were spotted with 0.025 ml of the quenched reaction mixture and allowed to dry at 25°. Disks were rinsed at 25° first with 40 ml of 1 mM ammonium formate and then with 20 ml of ethanol in a standard filter-holding chimney (Millipore). Disks were dried for 10 min at 60° in scintillation vials, to which 15 ml of Aquasol (New England Nuclear) were added after the vials had cooled. The vials were then counted on a Packard 2002 scintillation counter. With this system, the overall efficiency of counting phosphorylated purines bound to DE-81 filters was 4.10± 0.03% (S.E., n = 7).

Nc1nc2nc[nH]c2c(=S)[nH]1 [6TG, 6-thioguanine]
viability at 5 µg/mL ([1]; P1(0.5), read-out: RELATIVE SURVIVING FRACTION, clone P10, 5 μg/ml 6TG): 81% | viability at 5 µg/mL ([1]; read-out: RELATIVE SURVIVING FRACTION, clone B2, 5 μg/ml 6TG): 94% | viability at 10 µg/mL ([1]; read-out: RELATIVE SURVIVING FRACTION, clone B2, 10 μg/ml 6TG): 100% | viability at 20 µg/mL ([1]; read-out: RELATIVE SURVIVING FRACTION, clone B2, 20 μg/ml 6TG): 71% | viability at 5 µg/mL ([1]; read-out: RELATIVE SURVIVING FRACTION, clone B4, 5 μg/ml 6TG): 160% | viability at 10 µg/mL ([1]; read-out: RELATIVE SURVIVING FRACTION, clone B4, 10 μg/ml 6TG): 150% | viability at 20 µg/mL ([1]; read-out: RELATIVE SURVIVING FRACTION, clone B4, 20 μg/ml 6TG): 110% | viability at 5 µg/mL ([1]; read-out: RELATIVE SURVIVING FRACTION, clone B6, 5 μg/ml 6TG): 110% | viability at 10 µg/mL ([1]; read-out: RELATIVE SURVIVING FRACTION, clone B6, 10 μg/ml 6TG): 82% | viability at 20 µg/mL ([1]; read-out: RELATIVE SURVIVING FRACTION, clone B6, 20 μg/ml 6TG): 76% | viability at 5 µg/mL ([1]; read-out: RELATIVE SURVIVING FRACTION, clone B7, 5 μg/ml 6TG): 120% | viability at 10 µg/mL ([1]; read-out: RELATIVE SURVIVING FRACTION, clone B7, 10 μg/ml 6TG): 66% | viability at 20 µg/mL ([1]; read-out: RELATIVE SURVIVING FRACTION, clone B7, 20 μg/ml 6TG): 57% | viability at 5 µg/mL ([1]; read-out: RELATIVE SURVIVING FRACTION, clone B8, 5 μg/ml 6TG): 100% | viability at 10 µg/mL ([1]; read-out: RELATIVE SURVIVING FRACTION, clone B8, 10 μg/ml 6TG): 93% | viability at 20 µg/mL ([1]; read-out: RELATIVE SURVIVING FRACTION, clone B8, 20 μg/ml 6TG): 80% | viability at 5 µg/mL ([1]; read-out: RELATIVE SURVIVING FRACTION, clone B9, 5 μg/ml 6TG): 110% | viability at 10 µg/mL ([1]; read-out: RELATIVE SURVIVING FRACTION, clone B9, 10 μg/ml 6TG): 120% | viability at 20 µg/mL ([1]; read-out: RELATIVE SURVIVING FRACTION, clone B9, 20 μg/ml 6TG): 68% | viability at 5 µg/mL ([1]; read-out: RELATIVE SURVIVING FRACTION, clone B13, 5 μg/ml 6TG): 86% | viability at 10 µg/mL ([1]; read-out: RELATIVE SURVIVING FRACTION, clone B13, 10 μg/ml 6TG): 100% | viability at 20 µg/mL ([1]; read-out: RELATIVE SURVIVING FRACTION, clone B13, 20 μg/ml 6TG): 45% | viability at 5 µg/mL ([1]; read-out: RELATIVE SURVIVING FRACTION, clone B15, 5 μg/ml 6TG): 71% | viability at 10 µg/mL ([1]; read-out: RELATIVE SURVIVING FRACTION, clone B15, 10 μg/ml 6TG): 87% | viability at 20 µg/mL ([1]; read-out: RELATIVE SURVIVING FRACTION, clone B15, 20 μg/ml 6TG): 37% | viability at 5 µg/mL ([1]; read-out: RELATIVE SURVIVING FRACTION, clone B17, 5 μg/ml 6TG): 110% | viability at 10 µg/mL ([1]; read-out: RELATIVE SURVIVING FRACTION, clone B17, 10 μg/ml 6TG): 140% | viability at 20 µg/mL ([1]; read-out: RELATIVE SURVIVING FRACTION, clone B17, 20 μg/ml 6TG): 160% | viability at 5 µg/mL ([1]; read-out: RELATIVE SURVIVING FRACTION, clone B20, 5 μg/ml 6TG): 90% | viability at 10 µg/mL ([1]; read-out: RELATIVE SURVIVING FRACTION, clone B20, 10 μg/ml 6TG): 83% | viability at 20 µg/mL ([1]; read-out: RELATIVE SURVIVING FRACTION, clone B20, 20 μg/ml 6TG): 51% | viability at 10 µg/mL ([1]; read-out: RELATIVE SURVIVING FRACTION, clone D3, 10 μg/ml 6TG): 71% | viability at 20 µg/mL ([1]; read-out: RELATIVE SURVIVING FRACTION, clone D3, 20 μg/ml 6TG): 73% | viability at 5 µg/mL ([1]; read-out: RELATIVE SURVIVING FRACTION, clone P1, 5 μg/ml 6TG): 112% | viability at 10 µg/mL ([1]; read-out: RELATIVE SURVIVING FRACTION, clone P1, 10 μg/ml 6TG): 75% | viability at 20 µg/mL ([1]; read-out: RELATIVE SURVIVING FRACTION, clone P1, 20 μg/ml 6TG): 86% | viability at 5 µg/mL ([1]; read-out: RELATIVE SURVIVING FRACTION, clone P2, 5 μg/ml 6TG): 173% | viability at 10 µg/mL ([1]; read-out: RELATIVE SURVIVING FRACTION, clone P2, 10 μg/ml 6TG): 121% | viability at 20 µg/mL ([1]; read-out: RELATIVE SURVIVING FRACTION, clone P2, 20 μg/ml 6TG): 94% | viability at 5 µg/mL ([1]; read-out: RELATIVE SURVIVING FRACTION, clone P6, 5 μg/ml 6TG): 103% | viability at 10 µg/mL ([1]; read-out: RELATIVE SURVIVING FRACTION, clone P6, 10 μg/ml 6TG): 97% | viability at 20 µg/mL ([1]; read-out: RELATIVE SURVIVING FRACTION, clone P6, 20 μg/ml 6TG): 67% | viability at 5 µg/mL ([1]; read-out: RELATIVE SURVIVING FRACTION, clone P7, 5 μg/ml 6TG): 80% | viability at 10 µg/mL ([1]; read-out: RELATIVE SURVIVING FRACTION, clone P7, 10 μg/ml 6TG): 60% | viability at 20 µg/mL ([1]; read-out: RELATIVE SURVIVING FRACTION, clone P7, 20 μg/ml 6TG): 54% | viability at 5 µg/mL ([1]; read-out: RELATIVE SURVIVING FRACTION, clone P9, 5 μg/ml 6TG): 86% | viability at 10 µg/mL ([1]; read-out: RELATIVE SURVIVING FRACTION, clone P9, 10 μg/ml 6TG): 45% | viability at 20 µg/mL ([1]; read-out: RELATIVE SURVIVING FRACTION, clone P9, 20 μg/ml 6TG): 22% | viability at 10 µg/mL ([1]; read-out: RELATIVE SURVIVING FRACTION, clone P10, 10 μg/ml 6TG): 41% | viability at 20 µg/mL ([1]; read-out: RELATIVE SURVIVING FRACTION, clone P10, 20 μg/ml 6TG): 30% | viability at 5 µg/mL ([1]; read-out: RELATIVE SURVIVING FRACTION, clone P11, 5 μg/ml 6TG): 100% | viability at 10 µg/mL ([1]; read-out: RELATIVE SURVIVING FRACTION, clone P11, 10 μg/ml 6TG): 55% | viability at 20 µg/mL ([1]; read-out: RELATIVE SURVIVING FRACTION, clone P11, 20 μg/ml 6TG): 24% | viability at 5 µg/mL ([1]; read-out: RELATIVE SURVIVING FRACTION, clone P15, 5 μg/ml 6TG): 87% | viability at 10 µg/mL ([1]; read-out: RELATIVE SURVIVING FRACTION, clone P15, 10 μg/ml 6TG): 58% | viability at 20 µg/mL ([1]; read-out: RELATIVE SURVIVING FRACTION, clone P15, 20 μg/ml 6TG): 27% | viability at 5 µg/mL ([1]; read-out: RELATIVE SURVIVING FRACTION, clone P18, 5 μg/ml 6TG): 55% | viability at 10 µg/mL ([1]; read-out: RELATIVE SURVIVING FRACTION, clone P18, 10 μg/ml 6TG): 62% | viability at 20 µg/mL ([1]; read-out: RELATIVE SURVIVING FRACTION, clone P18, 20 μg/ml 6TG): 45%

CCOS(C)(=O)=O [EMS, ethyl methane sulphonate]
EST. INITIAL GROWTH DELAY [2]: 0 | viability at 24 h (in vitro): 0.12%

CN(N=O)C(N)=O [MNU, methylnitrosourea]
stability of electronic absorption spectrum in solution [3]: more than 60 minutes | EST. INITIAL GROWTH DELAY [2]: 0 | absolute plating efficiency in the absence of 6TG, stable maximum [2]: about 0.28 clones observed/particle plated | population increase before the culture's apparent cessation of growth [2]: about 2.25 times | viability at 24 h (in vitro): 0.1% | survival fraction of one 6TG^R clone (6TG^S and 6TG^R clones; 1 6TG^R clone, relatively high concentration of MNU): high survival fraction | MNU toxicity, 6TG^S versus 6TG^R clones (6TG^S and 6TG^R clones; 4 6TG^S and 4 6TG^R clones): the average behavior of the two groups was virtually identical

O=c1[nH]cnc2nc[nH]c12 [hypoxanthine]
phosphoribosylation velocity (HGPRT): 6.4 ± 0.4 mmoles of hypoxanthine/min
